From patent US7906488B2, “Sphingolipids in treatment and prevention of steatosis and of steatosis or of hepatotoxicity and its sequelae” (Nederlandse Organisatie Voor …, priority 2004, dated 2011)

Test system: APOE*3Leiden mice
Assay: Plasma ALAT, SAA and fibrinogen (plasma inflammation markers)
Format: in vivo
Details: 1% PS diet
Experimental: Plasma parameters: Tail blood samples were collected in EDTA-coated cups, or in paraoxon-coated capillaries to prevent lipolysis as described in Zambon et al. 1993 (Zambon et al. 1993. J. Lipid Res. 34:1021-1028). Plasma lipid parameters were determined using commercial kits for total cholesterol (C) Chol R1 from Roche Diagnostics, Mannheim, Germany), non-esterified free fatty acids (FFA) (NEFA-C; Wako chemicals, Neuss, Germany), Total triglycerides (TG) (Triglyceride GPO-Trinder; Sigma, St. Louis, Mo.), β-hydroxybutyrate (β-HB; Sigma) and ALAT (Reflotron GPT; Roche). Serum amyloid A (SAA) was measured by ELISA (Biosource, Nivelles, Belgium) and fibrinogen by sandwich ELISA, as described in Koopman et al., 2005 (Koopman et al. 2005. Fibrinol Proteol 11:19). For lipoproteins fractionation, groupwise-pooled plasma was size-fractionated by fast protein liquid chromatography (FPLC) on a Superose 6 column (Äkta; Amersham Pharmacia Biotech, Uppsala, Sweden). Fractions were assayed for total C and TG as described. Hepatic VLDL-TG production: The rate of hepatic VLDL-TG production, de novo apoB secretion, and VLDL composition were determined in overnight-fasted mice. Mice were anaesthetized with vetranquil/fentanyl/midazolam i.p., and injected i.v. with 0.1 ml PBS containing 100 μCi Tran^35S-label™ (ICN Biomedicals, Irvine, Calif.) to measure the de novo apoB synthesis. After 30 min, the animals received a Triton WR1339 injection (Tyloxapol, Sigma; 500 mg/kg body weight in 100 μl saline) to prevent systemic lipolysis of newly-secreted hepatic VLDL-TG (Aalto-Setala et al. 1992. J. Clin. Invest 90:1889-1900.27) Blood samples were drawn at 0, 15, 30, 60, and 90 min after Triton WR1339 injection and plasma TG concentrations were determined. After 90 min, the animals were sacrificed and blood was collected by retro-orbital bleeding for isolation of VLDL. VLDL composition: VLDL particles (d<1.019) were separated from other lipoproteins in plasma by density gradient ultra-centrifugation, as described in Jong et al., 1996 (Jong et al. 1996. Arterioscler. Thromb. Vasc. Biol. 16:934-940). Protein content of the VLDL fraction was determined by Lowry's assay (Lowry et al., 1951. J. Biol. Chem. 193:265-275), and TG and total C were determined as described above. Phospholipids and free cholesterol were determined using standard commercial kits (Wako Chemicals, Neuss, Germany). The ^35S-apoB content of VLDL was measured after selective precipitation of apoB with isopropanol as described elsewhere (Li et al. 1996 J. Lipid Res. 37:210-220; Pietzsch et al. 1995. Biochim. Biophys. Acta 1254:77-88). In vivo clearance of VLDL-like TG-rich particles: To determine whether 1% PS accelerates the clearance of TG-rich lipoproteins from plasma, we used radiolabeled emulsion particles as a tool. VLDL-like emulsion particles containing 200 μCi of [^3H]triolein and 20 μCi of [^14C]cholesteryl oleate were prepared and characterized as described in Rensen et al. 1997 (Rensen et al., 1997. J. Lipid Res. 38:1070-1084). Fed mice were anaesthetized as described above and laparotomy was performed. […] After taking the last liver and blood sample, the remainder of the liver, heart, spleen, hind limb muscle, and gonadal, perirenal and intestinal white adipose tissues were harvested. Lipids were extracted overnight at 60° C. in 500 μL of Solvable™, and radioactivity was counted as described in Rensen et al., 1997 (supra). RNA isolation and RT-PCR: Livers from 4 h-fasted mice fed 1% PS-containing diet or control Western-type diet for 5 weeks were removed immediately after sacrifice, flushed with cold 0.9% NaCl and snap frozen in liquid nitrogen. Total RNA was isolated as described by Chomczynski and Sacchi (Chomczynski, P. and Sacchi, N. 1987. Anal. Biochem. 162:156-159) by use of RNA-Bee™ (Campro Scientific, Berlin, Germany). cDNA synthesis was performed according to Bloks et al (Bloks et al., 2001. J. Lipid Res. 42:41-50). […]

## CCCCCCCCCCCCCC[C@@H](O)[C@@H](O)[C@@H](N)CO [PS, phytosphingosine]
5 weeks
  Plasma ALAT, % Δ vs control: −79%
  Plasma SAA, % Δ vs control: −74%
5 weeks, 4 h-fasted
  Plasma ALAT: 41 ± 21 U/l
  Plasma SAA: 3 ± 0.3 µg/mL
  Plasma fibrinogen: 2.3 ± 0.7 mg/mL
p<0.05
  Decrease of ALAT levels vs control: 79%
  Decrease of SAA levels vs control: 74%
